Laboratory results reported in PMC11783400, “Assessment of Potential Drug–Drug Interactions for Novel Oral Melanocortin‐1 Receptor Agonist Dersimelagon” (Pharmacology Research & Perspectives, 2025).

Experiments:
OATP1B1 = molecular target: T1, OATP1B1 (Homo sapiens, UniProt Q9Y6L6); assay: uptake inhibition in HEK293 cells expressing the transporter; assay type: cell-based
T1 construct: gene SLCO1B1; expressed in HEK293 cells
T1 sequence (Q9Y6L6 1-691): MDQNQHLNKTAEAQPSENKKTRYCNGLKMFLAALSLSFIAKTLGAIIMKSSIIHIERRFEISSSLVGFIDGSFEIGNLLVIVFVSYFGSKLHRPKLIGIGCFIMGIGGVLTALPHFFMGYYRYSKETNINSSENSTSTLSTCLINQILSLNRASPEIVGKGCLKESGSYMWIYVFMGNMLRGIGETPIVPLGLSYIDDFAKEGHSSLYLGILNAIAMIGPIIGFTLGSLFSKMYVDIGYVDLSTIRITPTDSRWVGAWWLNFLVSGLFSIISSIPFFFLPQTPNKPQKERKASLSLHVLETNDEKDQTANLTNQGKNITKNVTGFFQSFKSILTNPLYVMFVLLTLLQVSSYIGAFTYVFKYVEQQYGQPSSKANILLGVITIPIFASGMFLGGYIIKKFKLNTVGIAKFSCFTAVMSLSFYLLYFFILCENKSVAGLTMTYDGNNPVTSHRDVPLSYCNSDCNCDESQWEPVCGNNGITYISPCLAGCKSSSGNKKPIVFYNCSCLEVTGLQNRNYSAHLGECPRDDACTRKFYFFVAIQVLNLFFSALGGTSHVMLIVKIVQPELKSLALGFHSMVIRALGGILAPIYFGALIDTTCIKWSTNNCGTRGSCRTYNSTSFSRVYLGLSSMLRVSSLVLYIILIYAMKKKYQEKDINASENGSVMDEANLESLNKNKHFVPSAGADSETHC
Source text: uptake inhibition in HEK293 cells expressing the transporter on OATP1B1

UGT1A1 = molecular target: T2, UGT1A1 (Homo sapiens, UniProt P22309); assay: glucuronidation inhibition in human liver microsomes; assay type: biochemical; settings: substrate beta-estradiol, competitive
T2 construct: native enzyme in human liver microsomes
T2 sequence (P22309 26-533): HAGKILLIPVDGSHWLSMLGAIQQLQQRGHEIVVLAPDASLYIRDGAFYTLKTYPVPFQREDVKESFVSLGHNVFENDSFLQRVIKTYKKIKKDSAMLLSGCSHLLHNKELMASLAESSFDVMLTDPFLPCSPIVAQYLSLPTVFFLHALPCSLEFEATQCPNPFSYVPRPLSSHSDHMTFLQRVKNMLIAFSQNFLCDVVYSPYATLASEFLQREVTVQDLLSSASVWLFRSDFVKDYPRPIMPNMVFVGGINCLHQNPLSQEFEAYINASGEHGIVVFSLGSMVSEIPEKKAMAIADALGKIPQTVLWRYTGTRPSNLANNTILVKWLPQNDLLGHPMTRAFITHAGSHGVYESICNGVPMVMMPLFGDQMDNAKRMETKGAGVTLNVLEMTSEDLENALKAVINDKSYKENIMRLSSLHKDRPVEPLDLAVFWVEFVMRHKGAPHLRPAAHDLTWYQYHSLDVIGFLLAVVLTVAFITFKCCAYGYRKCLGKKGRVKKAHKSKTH
Source text: glucuronidation inhibition in human liver microsomes on UGT1A1

CYP1A2 = molecular target: T3, CYP1A2 (Homo sapiens, UniProt P05177); assay: CYP activity inhibition in human liver microsomes; assay type: biochemical; settings: read-out: IC50 (μM) / Direct inhibition
T3 construct: native enzyme in human liver microsomes
T3 sequence (P05177 2-516): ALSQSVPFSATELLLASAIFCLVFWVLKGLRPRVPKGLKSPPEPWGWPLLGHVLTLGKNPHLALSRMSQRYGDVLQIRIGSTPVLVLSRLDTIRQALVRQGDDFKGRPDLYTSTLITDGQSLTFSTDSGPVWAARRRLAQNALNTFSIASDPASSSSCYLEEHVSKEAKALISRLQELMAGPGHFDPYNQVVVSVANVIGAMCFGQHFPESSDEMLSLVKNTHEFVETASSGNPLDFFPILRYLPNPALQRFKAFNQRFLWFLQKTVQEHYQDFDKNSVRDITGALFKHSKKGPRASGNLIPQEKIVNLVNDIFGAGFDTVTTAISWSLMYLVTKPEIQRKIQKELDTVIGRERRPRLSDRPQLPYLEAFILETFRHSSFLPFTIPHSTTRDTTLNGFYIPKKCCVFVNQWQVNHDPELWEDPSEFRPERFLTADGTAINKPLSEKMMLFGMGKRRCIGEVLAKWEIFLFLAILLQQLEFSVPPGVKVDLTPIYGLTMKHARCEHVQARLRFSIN
Source text: CYP activity inhibition in human liver microsomes on CYP1A2

CYP2D6 = molecular target: T4, CYP2D6 (Homo sapiens, UniProt P10635); assay: CYP activity inhibition in human liver microsomes; assay type: biochemical; settings: read-out: IC50 (μM) / Direct inhibition
T4 construct: native enzyme in human liver microsomes
Source text: CYP activity inhibition in human liver microsomes on CYP2D6

OCT2 = molecular target: T5, OCT2 (Homo sapiens, UniProt O15244); assay: uptake inhibition in HEK293 cells expressing the transporter; assay type: cell-based
T5 construct: gene SLC22A2; expressed in HEK293 cells
T5 sequence (O15244 1-555): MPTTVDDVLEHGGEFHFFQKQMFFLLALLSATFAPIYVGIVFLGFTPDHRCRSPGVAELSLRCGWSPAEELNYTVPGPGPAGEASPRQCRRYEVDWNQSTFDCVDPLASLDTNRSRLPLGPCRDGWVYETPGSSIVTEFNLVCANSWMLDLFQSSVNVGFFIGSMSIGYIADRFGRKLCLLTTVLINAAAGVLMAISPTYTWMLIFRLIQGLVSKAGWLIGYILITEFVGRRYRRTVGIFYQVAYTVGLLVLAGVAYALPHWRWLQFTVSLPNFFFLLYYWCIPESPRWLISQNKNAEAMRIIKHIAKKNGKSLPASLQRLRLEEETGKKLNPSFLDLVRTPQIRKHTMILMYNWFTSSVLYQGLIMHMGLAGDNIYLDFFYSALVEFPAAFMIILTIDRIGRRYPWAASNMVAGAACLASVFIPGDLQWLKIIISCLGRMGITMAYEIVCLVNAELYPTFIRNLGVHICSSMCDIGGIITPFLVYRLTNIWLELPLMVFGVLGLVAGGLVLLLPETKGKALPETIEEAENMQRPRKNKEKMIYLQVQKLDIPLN
Source text: uptake inhibition in HEK293 cells expressing the transporter on OCT2

CYP3A4 (Table 1); CYP3A = molecular target: T6, CYP3A4 (Table 1); CYP3A (Homo sapiens, UniProt P08684); assay: time-dependent inactivation in human liver microsomes; assay type: biochemical; settings: read-out: Parameters / K I
T6 construct: native enzyme in human liver microsomes
Source text: time-dependent inactivation in human liver microsomes on CYP3A4 (Table 1); CYP3A (text)

T4 sequence (P10635 whole entry): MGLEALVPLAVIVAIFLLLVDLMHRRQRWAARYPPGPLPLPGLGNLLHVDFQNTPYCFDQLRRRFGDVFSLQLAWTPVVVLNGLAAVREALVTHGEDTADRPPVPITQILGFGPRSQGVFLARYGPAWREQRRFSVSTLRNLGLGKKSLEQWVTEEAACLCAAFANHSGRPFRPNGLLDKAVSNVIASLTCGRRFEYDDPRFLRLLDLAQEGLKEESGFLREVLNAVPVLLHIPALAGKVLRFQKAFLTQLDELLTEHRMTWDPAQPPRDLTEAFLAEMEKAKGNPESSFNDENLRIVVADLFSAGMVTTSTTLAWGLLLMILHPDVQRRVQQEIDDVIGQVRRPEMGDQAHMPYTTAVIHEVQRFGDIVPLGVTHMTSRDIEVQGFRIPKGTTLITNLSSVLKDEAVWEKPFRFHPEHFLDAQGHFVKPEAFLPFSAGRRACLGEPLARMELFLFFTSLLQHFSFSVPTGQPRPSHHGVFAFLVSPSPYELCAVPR
T6 sequence (P08684 2-503): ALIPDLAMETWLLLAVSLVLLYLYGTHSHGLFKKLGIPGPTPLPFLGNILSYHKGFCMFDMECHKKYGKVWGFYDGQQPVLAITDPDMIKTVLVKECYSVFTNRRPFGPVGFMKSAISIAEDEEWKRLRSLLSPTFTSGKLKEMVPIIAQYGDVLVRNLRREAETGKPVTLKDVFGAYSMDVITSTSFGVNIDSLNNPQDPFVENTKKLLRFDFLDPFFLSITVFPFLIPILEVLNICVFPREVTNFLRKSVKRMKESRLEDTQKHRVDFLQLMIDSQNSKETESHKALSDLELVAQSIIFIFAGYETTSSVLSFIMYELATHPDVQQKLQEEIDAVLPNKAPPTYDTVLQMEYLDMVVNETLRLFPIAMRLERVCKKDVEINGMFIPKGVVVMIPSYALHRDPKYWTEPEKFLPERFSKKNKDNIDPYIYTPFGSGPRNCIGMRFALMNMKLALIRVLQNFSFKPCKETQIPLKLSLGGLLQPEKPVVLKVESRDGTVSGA

COC[C@H]1CN(C(=O)[C@]2(F)CN(C3CCCC3)C[C@H]2c2ccc(OC)cc2)C[C@@H]1c1ccc(C(F)(F)F)cc1N1CCC(C(=O)O)CC1 [dersimelagon] was tested, and the IC50 (OATP1B1) was 158 nM, the Ki (UGT1A1; read-out: Parameters / K i) was 1190 nM and the IC50 (UGT1A1; direct inhibition) was 1.45 µM. The IC50 (CYP1A2) was > 100 µM, the IC50 (CYP2D6) was > 100 µM and the IC50 (OCT2) was > 28700 nM. For the same molecule, the KI (inactivation) (CYP3A4 (Table 1); CYP3A) was 64100 nM.
